Reference: paper PMC6429262, “Design and Synthesis of Novel Anti-Proliferative Emodin Derivatives and Studies on their Cell Cycle Arrest, Apoptosis Pathway and Migration” (Molecules, 2019)

Key:
Bcl-2 = assay: Western blot, Bcl-2; type: cell-based, human; details: 48 h
Protocol: (§1) Total cell lysates from cultured HepG2 cells treated with different concentrations of compound 7a for 48 h were obtained by lysing the cells in ice-cold RIPA buffer (1 PBS, 1% NP-40, 0.5% sodium deoxycholate and 0.1% SDS) containing […] PMSF, 5 mg/mL aprotinin, 5 mg/mL leupeptin, 5 mg/mL pepstatin and […] NaF. After centrifugation at 12,000 rpm for 10 min, the protein in the supernatant was quantified by the Bradford method (BIO-RAD, Hercules, CA, USA) using a Multimode Varioscan instrument (Thermo Fischer Scientific, Waltham, MA, USA). Twenty micrograms of protein per lane was applied in 12% SDS polyacrylamide gel. After electrophoresis, the protein was transferred to a polyvinylidine difluoride membrane (Amersham Biosciences, Marlborough, MA, USA). The membrane was blocked at room temperature for 2 h in TBST containing 5% blocking powder (Santa Cruz, Dallas, TX, USA). The membrane was washed with TBST for 5 min, and the primary antibody was added and incubated at 4 °C overnight (O/N). Bax (5023, CST, Danvers, MA, USA), Bcl-2 (15071, CST), cytochrome c (4280, CST), procaspase-9 (AB138412, Abcam, Cambridge, MA, USA), procaspase-3 (AB32150, Abcam), caspase-3 (66470-2-lg, Proteintech Group, Rosemont, IL, USA) and GAPDH (AB8245, Abcam) antibodies were employed. After three TBST washes, the membrane was incubated with the corresponding horseradish peroxidase-labeled secondary antibody (1:5000) (Santa Cruz) at room temperature for 2 h. Membranes were washed with TBST for 15 min five times and the protein blots were visualized with chemiluminescence reagent (Thermo Fischer Scientific Ltd.). The X-ray films were developed with a developer and fixed with fixer solution. The grey levels were analyzed using ImageQuant LAS 4000 system (GE, Marlborough, MA, USA).

procaspase-9 = assay: Western blot, procaspase-9; type: cell-based, human; details: 48 h
Protocol: as §1

HepG2 cells [1] = assay: Apoptosis analysis, annexin V-FITC/PI flow cytometry; type: cell-based, human; details: for Apoptosis percentage, Early apoptosis / Apoptosis percentage, Late apoptosis / Apoptosis percentage, Overall apoptosis: mean ± SD of three experiments; for percentage of apoptotic cells: Figure 3A
Protocol: In order to verify whether compound 7a is able to induce apoptosis in HepG2 cells, we utilized FITC-Annexin V/PI staining and estimated the percentage of apoptotic cells by flow cytometry. We noted a concentration-dependent increase in the percentage of apoptotic cells when the cells were treated with compound 7a for 48 h at concentrations 2.5, 5, and 10 μM. […] Apoptosis was discriminated with the annexin V-FITC/PI test. Cells were seeded at 2 × 10^5/well in 10% FBS-DMEM into 6-well plates and treated with compounds 7a for 48 h. The cells were washed twice with cold phosphate buffered saline (PBS) and then resuspend in 1× Binding Buffer (0.1M Hepes/NaOH (pH 7.4), 1.4M NaCl, 25 mM CaCl2)) at a concentration of 1 × 10^5 cells/mL. 100 μL of the solution (1 × 10^4 cells) was transferred to a 5 mL culture tube, and 5 μL of FITC Annexin V (BD, Pharmingen, Franklin Lakes, NJ, USA) and 5 μL PI were added to each tube. The cells were gently resuspended by vortexing, and then were incubated for 30 min at RT (25 °C) in the dark. After incubation, 200 μL PBS was added to each tube. The analysis was performed with the system software (CellQuest; BD Biosciences, Franklin Lakes, NJ, USA). Analysis is as follows: lower left quadrant, viable cells (Annexin V−/PI−); lower right quadrant, early apoptotic cells (Annexin V+/PI−); upper right quadrant, late apoptotic cells (annexin V+/PI+); upper left quadrant, necrotic cells (annexin V−/PI+). The percentage of cells positive for PI and Annexin V-FITC was reported inside the quadrants.

HepG2 cells [2] = assay: Wound healing assay (cell migration); type: cell-based; details: Homo sapiens, 48 h, read-out: Inhibition (%) of migration (cell inhibitory rate)
Protocol: To evaluate the effect of compound 7a on cancer migration, a wound healing assay was conducted to determine whether compound 7a could prevent HepG2 cell migration. After culturing HepG2 cells for 48 h in the presence and absence of compound 7a at 0, 0.25, 0.5, and 1 μM, a pipette tip was streaked through the cell culture, resulting in a cell deficient space. The territory recovered by the HepG2 cells was used to observe the migration inhibition capability of compound 7a.
HepG2 cells were grown in DMEM medium containing growth factors at a cell density of 1 × 10^5 cells/mL for 24 h. A disposable […] plastic pipette tip was used to scratch the monolayer of cells in a streaking motion. Compounds were added to the streaked cell culture at the indicated concentrations. The streaked cells were then cultured in serum-free medium for an additional 48 h and photographed. To quantify the experimental results, the % cell inhibitory rate was calculated by the equation: cell inhibitory rate (%) = (1 − Ddrug/Dcontrol) × 100%, where Ddrug is the mean distance of cell migration in drug group and Dcontrol is the mean distance of cell migration in control group. Pictures of the initial wounded monolayers were compared with the corresponding pictures of cells at the end of the incubation, and data were presented as mean ± SD from three independent experiments.

Bax = assay: Western blot, Bax; type: cell-based, human; details: 48 h
Protocol: as §1

In the case of `Cc1cc(O)c2c(c1)C(=O)c1cc(OCCCOC(=O)[C@@H](C)N)cc(O)c1C2=O.O=C(O)C(F)(F)F` [Compound 7a, (R)-1-(3-(4,5-Dihydroxy-7-methyl-9,10-dioxo-9,10-dihydroanthracen-2-yloxy)propoxy)-1-oxopropan-2-aminium 2,2,2-trifluoroacetate], the “Relative expression level, Bcl-2” value (Bcl-2; HepG2, 2.5 μM) is reported as 0.685 ± 0.025, the “Relative expression level, Bcl-2” value (Bcl-2; HepG2, 5 μM) is reported as 0.312 ± 0.012 and the “Relative expression level, Bcl-2” value (Bcl-2; HepG2, 10 μM) is reported as 0.268 ± 0.022. For the same molecule, the “Relative expression level, procaspase-9” value (procaspase-9; HepG2, 2.5 μM) was 0.600 ± 0.082, the “Relative expression level, procaspase-9” value (procaspase-9; HepG2, 5 μM) was 0.297 ± 0.058 and the “Relative expression level, procaspase-9” value (procaspase-9; HepG2, 10 μM) was 0.223 ± 0.029. The “Apoptosis percentage, Early apoptosis” value (HepG2 cells [1]; HepG2, 2.5 μM) was 2.91 ± 0.45%, the “Apoptosis percentage, Late apoptosis” value (HepG2 cells [1]; HepG2, 2.5 μM) was 3.69 ± 0.48% and the “Apoptosis percentage, Overall apoptosis” value (HepG2 cells [1]; HepG2, 2.5 μM) was 6.59 ± 0.93%. For the same molecule, the “percentage of apoptotic cells” value (HepG2 cells [1]; HepG2, 5 μM, 48 h) was 22.2%, the “Apoptosis percentage, Early apoptosis” value (HepG2 cells [1]; HepG2, 5 μM) was 15.93 ± 0.76% and the “Apoptosis percentage, Late apoptosis” value (HepG2 cells [1]; HepG2, 5 μM) was 7.51 ± 0.68%. The “Apoptosis percentage, Overall apoptosis” value (HepG2 cells [1]; HepG2, 5 μM) was 23.450 ± 1.07%, the “percentage of apoptotic cells” value (HepG2 cells [1]; HepG2, 10 μM, 48 h) was 50.7% and the “Apoptosis percentage, Early apoptosis” value (HepG2 cells [1]; HepG2, 10 μM) was 37.73 ± 0.97%. The “Apoptosis percentage, Late apoptosis” value (HepG2 cells [1]; HepG2, 10 μM) was 14.63 ± 1.17%, the “Apoptosis percentage, Overall apoptosis” value (HepG2 cells [1]; HepG2, 10 μM) was 52.00 ± 1.41% and the viability at 2.5 µM (HepG2 cells [1]; Homo sapiens, HepG2, 2.5 μM, 48 h, representative plot, read-out: Q4 (Annexin V−/PI−, viable cells)) was 93.3%. It also gave a viability at 5 µM (HepG2 cells [1]; Homo sapiens, HepG2, 5.0 μM, 48 h, representative plot, read-out: Q4 (Annexin V−/PI−, viable cells)) of 74.2%, a viability at 10 µM (HepG2 cells [1]; Homo sapiens, HepG2, 10 μM, 48 h, representative plot, read-out: Q4 (Annexin V−/PI−, viable cells)) of 46.9% and an inhibition at 0.25 µM (HepG2 cells [2]; HepG2, 0.25 μM) of 12.6 ± 1.69%. For the same molecule, the inhibition at 0.5 µM (HepG2 cells [2]; HepG2, 0.5 μM) was 23.7 ± 0.59%, the inhibition at 1 µM (HepG2 cells [2]; HepG2, 1 μM) was 40.2 ± 2.92% and the “Relative expression level, Bax” value (Bax; HepG2, 2.5 μM) was 1.180 ± 0.046. The “Relative expression level, Bax” value (Bax; HepG2, 5 μM) was 1.347 ± 0.081 and the “Relative expression level, Bax” value (Bax; HepG2, 10 μM) was 1.593 ± 0.112.
